# According to PMC10511884 (Frontiers in Chemistry, 2023):
# Experiments:
# [1] = molecular target: T1, COX-2 (Homo sapiens, UniProt P35354); experiment: In vitro COX-2 enzyme inhibitory assay; assay type: biochemical; details: mean ± SEM; n = 3
# T1 construct: purchased Sigma-Aldrich C0858
# T1 sequence (P35354 18-604): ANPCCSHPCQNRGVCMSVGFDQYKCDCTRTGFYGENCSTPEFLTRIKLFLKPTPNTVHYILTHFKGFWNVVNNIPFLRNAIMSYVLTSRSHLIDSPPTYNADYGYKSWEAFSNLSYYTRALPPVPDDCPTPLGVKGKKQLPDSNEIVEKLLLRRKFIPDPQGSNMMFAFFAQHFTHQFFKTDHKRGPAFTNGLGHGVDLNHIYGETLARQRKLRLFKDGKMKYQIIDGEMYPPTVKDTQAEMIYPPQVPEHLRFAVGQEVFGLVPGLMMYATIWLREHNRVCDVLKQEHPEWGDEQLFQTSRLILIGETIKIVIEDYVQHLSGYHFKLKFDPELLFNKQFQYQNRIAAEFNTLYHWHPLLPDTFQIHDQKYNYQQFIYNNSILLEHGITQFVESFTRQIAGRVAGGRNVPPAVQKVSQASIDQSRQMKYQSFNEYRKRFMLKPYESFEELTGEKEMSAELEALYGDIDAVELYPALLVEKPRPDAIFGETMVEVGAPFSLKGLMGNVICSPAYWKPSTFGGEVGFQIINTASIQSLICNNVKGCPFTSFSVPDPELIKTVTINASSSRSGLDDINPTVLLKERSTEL
# Description: (§1) In a nutshell, the test specimens were made in progressively higher concentrations. Furthermore, enzyme solutions for COX-1 from a sheep source (CAT: C0733-5000UN, Sigma-Aldrich) and COX-2 from a human recombinant source (CAT: C0858) were developed. COX-1 has a concentration of 0.7–0.8 g/L, whereas COX-2 has a concentration of 300 units/mL. […] The COX-2 enzyme solution was primed at 300 U/mL levels. 10 μL of the enzyme solution was kept on ice (4°C) for 5–6 min before 50 µL of the required co-factor solution was added. This solution contains 1 mM hematin in a 0.1 M Tris-buffer with pH 8.0, 0.24 mM tetramethyl-p-phenylenediamine dihydrochloride (TMPD), and 0.9 mM glutathione. Then, for the next 5–10 min, the enzyme solution (60 µL) and experiment samples (20 µL) of different strengths has been kept at the normal temperature. Similar to that, 20 µL of 30 mM arachidonic acid was utilized to start the procedure. The mixture’s temperature was held at 37°C for an additional 15 min. A UV-visible spectrophotometer was used to determine the absorbance at 570 nm after which the process was halted by adding HCl. Using the absorbance value per unit time, the percentage of COX-2 inhibition was computed. Celecoxib served as the standard control in the present study.
# [2] = molecular target: T2, COX-1 (Ovis aries, UniProt P05979); experiment: In vitro COX-1 enzyme inhibitory assay; assay type: biochemical, sheep; details: mean ± SEM; n = 3
# T2 construct: purchased Sigma-Aldrich C0733-5000UN
# T2 sequence (P05979 25-600): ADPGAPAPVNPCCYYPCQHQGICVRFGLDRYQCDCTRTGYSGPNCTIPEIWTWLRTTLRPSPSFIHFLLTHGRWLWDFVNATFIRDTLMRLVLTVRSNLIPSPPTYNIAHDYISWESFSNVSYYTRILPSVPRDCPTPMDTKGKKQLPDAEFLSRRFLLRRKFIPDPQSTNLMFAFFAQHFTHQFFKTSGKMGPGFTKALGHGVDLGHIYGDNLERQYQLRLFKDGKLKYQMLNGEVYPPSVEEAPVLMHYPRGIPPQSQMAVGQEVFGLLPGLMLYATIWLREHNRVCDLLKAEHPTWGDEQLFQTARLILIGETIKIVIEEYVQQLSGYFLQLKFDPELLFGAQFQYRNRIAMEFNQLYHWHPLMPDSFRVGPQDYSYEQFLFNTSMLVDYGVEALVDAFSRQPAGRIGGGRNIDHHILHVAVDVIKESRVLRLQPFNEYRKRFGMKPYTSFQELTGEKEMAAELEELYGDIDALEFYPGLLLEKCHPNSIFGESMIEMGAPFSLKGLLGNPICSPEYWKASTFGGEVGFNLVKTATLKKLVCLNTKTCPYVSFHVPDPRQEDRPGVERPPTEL
# Description: as §1
Structure (SMILES),IC50 [1] [µM],IC50 [2] [µM]
"Cc1cc(C2=C(C(F)(F)F)NC(=O)NC2c2ccccc2)no1 (centres unmarked) [Compound C1, 5-(5-methylisoxazol-3-yl)-4-phenyl-6-(trifluoromethyl)-3,4-dihydropyrimidin-2(1H)-one]",2.52 ± 0.02,239 ± 2.3
"COc1ccc(C2NC(=O)NC(C(F)(F)F)=C2c2cc(C)on2)cc1 (centres unmarked) [Compound C2, 4-(4-methoxyphenyl)-5-(5-methylisoxazol-3-yl)-6-(trifluoromethyl)-3,4-dihydro-pyrimidin-2(1H)-one]",2.43 ± 0.05,172 ± 1.9
"COc1ccc(C2NC(=O)NC(C(F)(F)F)=C2c2cc(-c3ccccc3)on2)cc1O (centres unmarked) [Compound C3, 4-(3-hydroxy-4-methoxyphenyl)-5-(5-phenylisoxazol-3-yl)-6-(trifluoromethyl)-3,4-dihydropyrimidin-2(1H)-one]",0.93 ± 0.01,22.6 ± 0.9
"COc1ccc(C2NC(=O)NC(C(F)(F)F)=C2c2cc(-c3ccc(-c4ccccc4)cc3)on2)cc1 (centres unmarked) [Compound C4, 5-(5-([1,1′-biphenyl]-4-yl)isoxazol-3-yl)-4-(4-methoxyphenyl)-6-(trifluoromethyl)-3,4-dihydropyrimidin-2(1H)-one]",8.27 ± 0.2,66.8 ± 1.84
"O=C1NC(C(F)(F)F)=C(c2cc(-c3ccco3)on2)C(c2ccco2)N1 (centres unmarked) [Compound C5, 4-(furan-2-yl)-5-(5-(furan-2-yl)isoxazol-3-yl)-6-(trifluoromethyl)-3,4-dihydropyrimidin-2(1H)-one]",0.85 ± 0.04,35.5 ± 1.49
"COc1ccc(C2NC(=O)NC(C(F)(F)F)=C2c2cc(-c3ccco3)on2)cc1 (centres unmarked) [Compound C6, 5-(5-(furan-2-yl)isoxazol-3-yl)-4-(4-methoxyphenyl)-6-(trifluoromethyl)-3,4-dihydro-pyrimidin-2(1H)-one]",0.55 ± 0.03,34 ± 1.31
"O=C1NC(C(F)(F)F)=C(c2cc(-c3ccco3)on2)C(c2ccc(C(F)(F)F)cc2)N1 (centres unmarked) [Compound C7, 5-(5-(furan-2-yl)isoxazol-3-yl)-6-(trifluoromethyl)-4-(4-(trifluoromethyl)phenyl)-3,4-dihydropyrimidin-2(1H)-one]",0.74 ± 0.1,83.8 ± 0.96
"Cc1ccc(C2NC(=O)NC(C(F)(F)F)=C2c2cc(-c3ccco3)on2)cc1 (centres unmarked) [Compound C8, 5-(5-(furan-2-yl)isoxazol-3-yl)-4-p-tolyl-6-(trifluoromethyl)-3,4-dihydropyrimidin-2(1H)-one]",0.79 ± 0.05,91.19 ± 0.51
"O=C1NC(C(F)(F)F)=C(c2cc(-c3ccncc3)on2)C(c2ccccc2)N1 (centres unmarked) [Compound C9, 4-phenyl-5-(5-(pyridin-4-yl)isoxazol-3-yl)-6-(trifluoromethyl)-3,4-dihydropyrimidin-2(1H)-one]",1.7 ± 0.1,101 ± 1.17
"O=C1NC(C(F)(F)F)=C(c2cc(-c3ccncc3)on2)C(c2ccncc2)N1 (centres unmarked) [Compound C10, 4-(Pyridin-4-yl)-5-(5-(pyridin-4-yl)isoxazol-3-yl)-6-(trifluoromethyl)-3,4 dihydropyrimidin-2(1H)-one]",20 ± 0.4,61.9 ± 1.11
